Laboratory results taken from patent US10822310B2, “Prevention and treatment of human metabolic syndrome including type 2 diabetes, steatohepititis and related conditions using non-absorbable, orally administered compounds” (priority 2017, dated 2020).
Values belong to the compound of their own block, whether it stands above or below them.

Experiments:
[1] = rate studies of reaction with methyl glyoxal by reverse phase HPLC; settings: pH 7, aqueous solution
GLP-1 = assay: in vitro protection of GLP-1 from methyl glyoxal (UPLC/TOF-MS); type: biochemical; settings: 0.62 mM peptide, 30 mM phosphate buffer pH 7.4, 20 equiv methyl glyoxal, 37 degrees C, 3 hours, 5 equiv compound relative to methyl glyoxal
Description: In order to test further the hypothesis that intestinal peptide hormones might be compromised by the chemical action of gut microbial products, in vitro studies were carried out with GLP-1, PYY and Oxyntomodulin. For these studies methyl glyoxal was selected as electrophile because it is a well-known microbial metabolite and also relevant to metabolic syndrome, T2D and diabetic neuropathy; see Diabetes, 63, 50-52 (2014); Biochemical Soc. Transact, 42, 450-456 (2014); Clinical Sci., 128, 839-861 (2015); Hypertension, 56, 471-476 (2010). Methyl glyoxal has also been implicated in neurodegenerative diseases—see Neuroscience, 9, 1-12 (2015). […] Methyl glyoxal can be detected in blood in amounts that correlate with the severity of T2D. […]
The results of the in vitro studies that have been carried out using methyl glyoxal and each of three intestinal peptide hormones, GLP-1, PYY (a satiety-sensing hormone), and Oxyntomodulin, can be summarized as follows: • 1. […] The mixture was cooled to ambient temperature and analyzed by ultra-high pressure liquid chromatography (Agilent 1290 UPLC) coupled with detection by triple time of flight mass spectrometry (Scitex 5600 TRIPTOF mass spectrometer), each aliquot being diluted with 20% aqueous acetic acid. • 2. […]

[2] = analysis of blood of treated mice by HPLC/mass spectrometry (absorption from GI tract); type: in vivo; settings: treated FATZO mice
Description: (§1) In order to test the hypothesis that a non-absorbable compound which is confined to the GI tract can favorably affect metabolic syndrome T2D and related conditions in vivo studies were carried out with I/II using a polygenic mutant strain of mice that develop metabolic syndrome, T2D and obesity when fed a high fat (“Western type”) diet. This polygenic mouse model (“FATZO” mouse), developed by Eli Lilly Co. and PreClinOmics (now Crown Bio, Indianapolis, Ind.), has been described in detail (PLoS ONE, 12, 1-15 (2017). FATZO mice on a high fat diet generally gain weight, gradually become obese, and develop hyperglycemia, hypertension, glucose intolerance, insulin insensitivity and severe T2D. A group of FATZO mice were placed on a high fat diet (HFD) for an initial three-week ‘base’ period after which they were divided into two groups: Group 1 (the treated group) was maintained on a HFD along with 5 mg/day of I/II, administered in water by gavage. […] Blood glucose levels of the treated group were stabile and after six weeks about 50% below those of the untreated group. […] A third group of FATZO mice was maintained on a standard diet of ordinary mouse chow and also treated with 5 mg/day of I/II.

FATZO mice = assay: in vivo study in polygenic FATZO mouse model of metabolic syndrome, T2D and obesity
Description: as §1

[3] = standard diet of ordinary mouse chow, 5 mg/day, six weeks

- pKa (physchem): ~7.7
Compound: NCc1nc2cc(S(=O)(=O)O)ccc2[nH]1 [I, 2-(Aminiomethyl)-1H-benzol[d]imidazole-5-sulfonate]

Compound: CN(C)C(=N)N=C(N)N [metformin]
- reactivity (rate) toward methyl glyoxal relative to N-tosyl-arginine methyl ester [1]: less than one-tenth the rate

- absorption from the GI tract after oral administration [2]: no detectable absorption
- test compound in blood ([2]; oral administration, HPLC/mass spectrometry): < 0.01 mg. per mouse
- behavior (FATZO mice; [3]): completely normal behavior
Compound: NCc1nc2cc(S(=O)(=O)O)ccc2[nH]1 [I/II]
- GLP-1 remained unchanged (GLP-1): greater than 95%
- fasting blood glucose level below that of untreated group (FATZO mice; high fat diet, 5 mg/day by gavage in water, after six weeks): about 50%
- body weight gain (FATZO mice; high fat diet, 5 mg/day by gavage, six weeks (untreated gained 2% per week)): no weight gain
- body weight gain (FATZO mice; [3]): no weight gain
- increase in fasting blood glucose levels (FATZO mice; [3]): no increase in fasting blood glucose levels
